Results taken from PubChem BioAssay (NCI).
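Method: 48-hour compound exposure of cells in 96-well plates, five concentrations, linear interpolation of endpoints. Here, GI50 denotes the concentration required for 50% inhibition of growth. Definition used: TGI = concentration required for complete inhibition of growth.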

What was measured:
Assay in all cases: inhibition of tumour cell growth, NCI panel, 48 h
A549 NSCLC = test system: A549 NSCLC
EKVX NSCLC = test system: EKVX NSCLC
HOP-62 NSCLC = test system: HOP-62 NSCLC
HOP-92 NSCLC = test system: HOP-92 NSCLC
K-562 leukemia = test system: K-562 leukemia
MALME-3M melanoma = test system: MALME-3M melanoma
NCI/ADR-RES ovarian = test system: NCI/ADR-RES ovarian
SK-MEL-28 melanoma = test system: SK-MEL-28 melanoma
TK-10 renal = test system: TK-10 renal

Row | SMILES | GI50 (A549 NSCLC) | TGI (A549 NSCLC) | GI50 (EKVX NSCLC) | TGI (EKVX NSCLC) | GI50 (HOP-62 NSCLC) | TGI (HOP-62 NSCLC) | GI50 (HOP-92 NSCLC) | TGI (HOP-92 NSCLC) | GI50 (K-562 leukemia) | TGI (K-562 leukemia) | GI50 (MALME-3M melanoma) | TGI (MALME-3M melanoma) | GI50 (NCI/ADR-RES ovarian) | TGI (NCI/ADR-RES ovarian) | GI50 (SK-MEL-28 melanoma) | TGI (SK-MEL-28 melanoma) | GI50 (TK-10 renal) | TGI (TK-10 renal)
1 | C[C@H]1[C@H](C)CC[C@]2(CO)CC[C@]3(C)C(=CC[C@@H]4[C@@]5(C)CCCNC(C)(C)[C@@H]5CC[C@]43C)[C@H]12 | 1.74 µM | 3.28 µM | 1.66 µM | 3.29 µM | 1.81 µM | 3.43 µM | 1.52 µM | 3.19 µM | 0.471 µM | 2.02 µM | 1.68 µM | 3.44 µM | 1.76 µM | 3.47 µM | 1.75 µM | 3.3 µM | 1.84 µM | 3.32 µM
2 | Cc1ccc(S(=O)(=O)N/N=C/c2c(O)ccc3ccccc23)cc1 |  | > 100 µM |  | > 100 µM |  | > 100 µM |  |  |  | > 100 µM |  | 77.4 µM |  | > 100 µM |  | > 100 µM |  | > 100 µM
3 | CN(CCCn1c2c(c3ccccc3c1=O)C(=O)c1ccccc1-2)CCCn1c2c(c3ccccc3c1=O)C(=O)c1ccccc1-2 | 1.13 µM | 4.21 µM | 23.5 µM | > 100 µM |  |  | 0.0671 µM | 1.9 µM | 0.335 µM |  | 1.08 µM | 28.4 µM | 1.05 µM | 4.32 µM | 1.28 µM |  |  | 
4 | COc1cc(NC(C)CCCNC2CN3CCC2CC3)c2ncccc2c1 (centres undefined) | 12.9 µM | 27.5 µM | 12.1 µM | 26.7 µM | 11.9 µM | 24.8 µM | 4.37 µM | 21.8 µM |  |  | 10 µM | 24.3 µM | 24.6 µM | > 100 µM | 11.3 µM | 23.7 µM | 16.6 µM | 31 µM
